IC50 data for 23 compounds are collected here from patent publication US20240262819A1, “NOVEL COMPOUNDS HAVING INHIBITORY ACTIVITY AGAINST GLUCOSYLCERAMIDE SYNTHASE OR PHARMACEUTICALLY ACCEPTABLE SALT THEREOF, PROCESSES FOR PREPARING THE SAME, AND PHARMACEUTICAL COMPOSITIONS COMPRISING THE SAME” (YUHAN CORPORATION, priority 2021, published 2024).

As usually defined, the IC50 is the concentration at which inhibition is half-maximal.

In test [1] the target is glucosylceramide synthase (GCS) (Homo sapiens (Human), UniProt Q16739). The test is described as follows: Evaluation of inhibitory activities against GCS (A549 cell lysate, NBD C6-ceramide, HPLC). In kind it is biochemical. Here is the method: The inhibitory activities of the compounds of the present invention against GCS were evaluated, as follows, according to the method described in the known literature (Hayashi Y et al., A sensitive and reproducible assay to measure the activity of glucosylceramide synthase and lactosylceramide synthase using HPLC and fluorescent substrates, Analytical Biochemistry 345 (2005) 181-186). Ibiglustat, known as a GCS inhibitor, was used as a control.
After the cells attached to the culture dish were washed with phosphate buffered saline (PBS), the cells were scraped off with a cell scraper and then centrifuged (4000 rpm, 3 min, 4 °C) to collect the cells in a 50 ml tube. The cell pellets were suspended in a lysis buffer (50 mM HEPES, pH 7.3, containing 1× the protease/phosphatase inhibitor cocktail), lysed by sonication, and then the lysate was centrifuged (13000 rpm, 10 min, 4° C.). The obtained supernatant was used for the quantitative analysis of proteins. The amount of proteins was measured using the BCA protein assay kit, using bovine serum albumin as a standard.
Enzymatic reactions were initiated by sequentially adding the following reaction materials to a 96 deep-well plate. Thereafter, the enzymatic reactions were performed at 37° C. for 90 minutes.
The enzymatic reactions were stopped by adding 100 μl of chloroform/methanol (2:1, v/v). […] The lower layer (50 μl) was transferred to a new 96 deep-well plate and dried with a reduced concentrator.
Lipids were dissolved in 100 μl of isopropyl alcohol/n-hexane/H2O (55:44:1, v/v/v) and then transferred to a glass vial for HPLC (Agilent, 8004-HP-H/i3u). The sample (100 μl) was automatically loaded onto a normal-phase column (Intersil SIL 150A-5, 4.6×250 mm, GL Sciences, Japan) and then eluted at a flow rate of 2.0 ml/min with isopropyl alcohol/n-hexane/H2O (55:44:1, v/v/v). The fluorescence thereof was measured with a fluorescence detector (Agilent, 1260 FLD Spectra), using 470 nm and 530 nm as excitation and emission wavelengths, respectively.
Data analysis was performed by the following equations.
% Area (Sample)=Area (GlcCer)/[Area (Cer)+Area (GlcCer)]×100%
GCS activity=[Area (Sample)−Area (ibiglustat)]/[Area (DMSO)−Area (ibiglustat)]×100
The obtained % GCS activity data was analyzed with the software GraphPad Prism (Ver 5.01) to calculate the IC50 values.

In test [2] the test system is GM1 production in Jurkat cells. The test is described as follows: cells. In kind it is cell-based.
Where [3] appears, read: % GCS activity, A549 cell lysate, 37° C. for 90 minutes, read-out: IC50.

Like-named read-outs stand apart in the source and are kept apart here.

glucosylceramide synthase (GCS), sequence (Q16739 whole entry): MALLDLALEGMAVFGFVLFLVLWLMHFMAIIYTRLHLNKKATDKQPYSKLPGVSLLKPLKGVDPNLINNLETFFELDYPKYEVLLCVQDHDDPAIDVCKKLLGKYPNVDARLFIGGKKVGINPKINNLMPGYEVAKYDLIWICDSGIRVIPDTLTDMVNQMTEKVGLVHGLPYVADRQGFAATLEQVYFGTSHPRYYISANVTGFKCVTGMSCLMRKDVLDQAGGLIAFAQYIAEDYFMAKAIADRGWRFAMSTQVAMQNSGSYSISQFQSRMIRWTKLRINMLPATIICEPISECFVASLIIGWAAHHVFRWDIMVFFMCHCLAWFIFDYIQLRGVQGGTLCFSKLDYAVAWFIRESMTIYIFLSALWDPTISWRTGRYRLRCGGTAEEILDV

Take `CCCOc1ccc(-c2ccc3c(c2)CCC(C)(C)[C@H]3NC(=O)O[C@@H]2CN3CCC2CC3)cc1` [Example 144, (S)-quinuclidin-3-yl((R)-2,2-dimethyl-6-(4-propoxyphenyl)-1,2,3,4-tetrahydronaphthalen-1-yl) carbamate]: the IC50 in test [1] (setting [3]) came out at 0.42 nM; in test [2] (read-out: IC50), 2.3 nM.
For the compound `CC(C)Cc1cccc(-c2ccc3c(c2)CCC(C)(C)[C@H]3NC(=O)O[C@@H]2CN3CCC2CC3)c1` [Example 157, (S)-quinuclidin-3-yl((R)-6-(3-isobutylphenyl)-2,2-dimethyl-1,2,3,4-tetrahydronaphthalen-1-yl)carbamate], the concentration for half-maximal inhibition (IC50) in test [1] was determined as 0.81 nM; in test [2] (Homo sapiens, Jurkat, 72 h), 2.64 nM.
For `CCOc1cc2c(cc1-c1ccc(CC(C)C)cc1)CC(C)(C)[C@H]2NC(=O)O[C@@H]1CN2CCC1CC2` [Example 131, (S)-quinuclidin-3-yl((R)-6-ethoxy-5-(4-isobutylphenyl)-2,2-dimethyl-2,3-dihydro-1H-inden-1-yl)carbamate], in that order: 2.01 nM and 6.47 nM.
For `CCCCc1ccc(-c2cc3c(cc2F)[C@H](NC(=O)O[C@@H]2CN4CCC2CC4)C(C)(C)CC3)cc1` [Example 173, (S)-quinuclidin-3-yl((R)-6-(4-butylphenyl)-7-fluoro-2,2-dimethyl-1,2,3,4-tetrahydronaphthalen-1-yl)carbamate], in that order: 0.24 nM and 0.3 nM.
For `COc1ccc(-c2cc3c(cc2C)[C@H](NC(=O)O[C@@H]2CN4CCC2CC4)C(C)(C)C3)c(F)c1` [Example 126, (S)-quinuclidin-3-yl((R)-5-(2-fluoro-4-methoxyphenyl)-2,2,6-trimethyl-2,3-dihydro-1H-inden-1-yl)carbamate], in that order: 1.48 nM and 18 nM.
On to “(S)-quinuclidin-3-yl((R)-7-fluoro-6-(4-isopropylphenyl)-2,2-dimethyl-1,2,3,4-tetrahydronaphthalen-1-yl) carbamate [Example 172]”, for which the IC50 in test [1] (setting [3]) is 0.33 nM; in test [2] (read-out: IC50), 0.86 nM.
Turning to `CC(C)c1cccc(-c2cc3c(cc2F)[C@H](NC(=O)O[C@@H]2CN4CCC2CC4)C(C)(C)CC3)c1` [Example 190, (S)-quinuclidin-3-yl((R)-7-fluoro-6-(3-isopropylphenyl)-2,2-dimethyl-1,2,3,4-tetrahydronaphthalen-1-yl)carbamate], the IC50 was found to be 0.72 nM in test [1] and 1.9 nM in test [2] (Homo sapiens, Jurkat, 72 h).
Consider `CC(C)COc1cccc(-c2ccc3c(c2)CCC(C)(C)[C@H]3NC(=O)O[C@@H]2CN3CCC2CC3)c1` [Example 163, (S)-quinuclidin-3-yl((R)-6-(3-isobutoxyphenyl)-2,2-dimethyl-1,2,3,4-tetrahydronaphthalen-1-yl)carbamate], for which the IC50 in test [1] was 8.05 nM; in test [2] (Homo sapiens, Jurkat, 72 h), 1.3 nM.
For `CCOc1c(C)cc(-c2cc3c(cc2F)[C@H](NC(=O)O[C@@H]2CN4CCC2CC4)C(C)(C)CC3)cc1C` [Example 195, (S)-quinuclidin-3-yl((R)-6-(4-ethoxy-3,5-dimethylphenyl)-7-fluoro-2,2-dimethyl-1,2,3,4-tetrahydronaphthalen-1-yl)carbamate], in that order: 1.29 nM and 8.3 nM.
For `CCOc1cc2c(cc1-c1ccc(OC(C)C)c(Cl)c1)CC(C)(C)[C@H]2NC(=O)O[C@@H]1CN2CCC1CC2` [Example 137, (S)-quinuclidin-3-yl((R)-5-(3-chloro-4-isopropoxyphenyl)-6-ethoxy-2,2-dimethyl-2,3-dihydro-1H-inden-1-yl)carbamate], in that order: 3.04 nM and 12.8 nM.
For `CC(C)Oc1c(Cl)cc(-c2ccc3c(c2)CC(C)(C)[C@H]3NC(=O)O[C@@H]2CN3CCC2CC3)cc1Cl` [Example 40, (S)-quinuclidin-3-yl((R)-5-(3,5-dichloro-4-isopropoxyphenyl)-2,2-dimethyl-2,3-dihydro-1H-inden-1-yl)carbamate], in that order: 3.21 nM and 1.6 nM.
`CCCOc1ccc(-c2ccc3c(c2)CC(C)(C)[C@H]3NC(=O)O[C@@H]2CN3CCC2CC3)cc1C` [Example 47, (S)-quinuclidin-3-yl((R)-2,2-dimethyl-5-(3-methyl-4-propoxyphenyl)-2,3-dihydro-1H-inden-1-yl) carbamate]: the figures for the IC50 in test [1] (setting [3]) and in test [2] (read-out: IC50) were 1.89 nM and 7.7 nM, respectively.
In the same order, the values of `CCOc1ccc(-c2ccc3c(c2)CCC(C)(C)[C@H]3NC(=O)O[C@@H]2CN3CCC2CC3)cc1` [Example 143, (S)-quinuclidin-3-yl((R)-6-(4-ethoxyphenyl)-2,2-dimethyl-1,2,3,4-tetrahydronaphthalen-1-yl) carbamate] are 0.33 nM and 4.2 nM.
As for `CC(C)COc1cccc(-c2cc3c(cc2F)[C@H](NC(=O)O[C@@H]2CN4CCC2CC4)C(C)(C)CC3)c1` [Example 191, (S)-quinuclidin-3-yl((R)-7-fluoro-6-(3-isobutoxyphenyl)-2,2-dimethyl-1,2,3,4-tetrahydronaphthalen-1-yl) carbamate], the IC50 in test [1] (setting [3]) is 0.62 nM; in test [2] (read-out: IC50), 2.28 nM.
In the case of `Cc1cc(-c2ccc3c(c2)CC(C)(C)[C@H]3NC(=O)O[C@@H]2CN3CCC2CC3)ccc1OC(F)F` [Example 48, (S)-quinuclidin-3-yl((R)-5-(4-(difluoromethoxy)-3-methylphenyl)-2,2-dimethyl-2,3-dihydro-1H-inden-1-yl)carbamate], the IC50 was 1.3 nM in test [1] and 13.9 nM in test [2] (Homo sapiens, Jurkat, 72 h).
Turning to `CCOc1ccc(-c2cc3c(cc2F)[C@H](NC(=O)O[C@@H]2CN4CCC2CC4)C(C)(C)C3)cc1C` [Example 105, (S)-quinuclidin-3-yl((R)-5-(4-ethoxy-3-methylphenyl)-6-fluoro-2,2-dimethyl-2,3-dihydro-1H-inden-1-yl)carbamate], the IC50 in test [1] worked out at 0.72 nM; in test [2] (Homo sapiens, Jurkat, 72 h), 8.2 nM.
For `Cc1cc2c(cc1-c1ccc(CC(C)C)cc1)CC(C)(C)[C@H]2NC(=O)O[C@@H]1CN2CCC1CC2` [Example 119, (S)-quinuclidin-3-yl((R)-5-(4-isobutylphenyl)-2,2,6-trimethyl-2,3-dihydro-1H-inden-1-yl)carbamate], the IC50 amounted to 0.23 nM in test [1] and 4.95 nM in test [2] (Homo sapiens, Jurkat, 72 h).
In the same order, the values of `CC(C)Oc1cc(Cl)cc(-c2ccc3c(c2)CC(C)(C)[C@H]3NC(=O)O[C@@H]2CN3CCC2CC3)c1` [Example 54, (S)-quinuclidin-3-yl((R)-5-(3-chloro-5-isopropoxyphenyl)-2,2-dimethyl-2,3-dihydro-1H-inden-1-yl)carbamate] are 0.59 nM and 8.6 nM.
In the case of `CC1(C)Cc2cc(-c3cc(F)cc(OCC(F)(F)F)c3)ccc2[C@@H]1NC(=O)O[C@@H]1CN2CCC1CC2` [Example 51, (S)-quinuclidin-3-yl((R)-5-(3-fluoro-5-(2,2,2-trifluoroethoxy)phenyl)-2,2-dimethyl-2,3-dihydro-1H-inden-1-yl) carbamate], the IC50 came to 0.65 nM in test [1] (setting [3]) and 9.1 nM in test [2] (read-out: IC50).
As to `CCOc1cc2c(cc1-c1ccc(OC)cc1F)CC(C)(C)[C@H]2NC(=O)O[C@@H]1CN2CCC1CC2` [Example 138, (S)-quinuclidin-3-yl((R)-6-ethoxy-5-(2-fluoro-4-methoxyphenyl)-2,2-dimethyl-2,3-dihydro-1H-inden-1-yl)carbamate], the IC50 amounted to 1.87 nM in test [1] and 28 nM in test [2] (Homo sapiens, Jurkat, 72 h).
For `CCCCc1ccc(-c2cc3c(cc2OCC)[C@H](NC(=O)O[C@@H]2CN4CCC2CC4)C(C)(C)C3)cc1` [Example 130, (S)-quinuclidin-3-yl((R)-5-(4-butylphenyl)-6-ethoxy-2,2-dimethyl-2,3-dihydro-1H-inden-1-yl)carbamate], in that order: 0.75 nM and 1.53 nM.
In the same order, the values of `CCCc1ccc(-c2cc3c(cc2C)[C@H](NC(=O)O[C@@H]2CN4CCC2CC4)C(C)(C)C3)cc1` [Example 116, (S)-quinuclidin-3-yl((R)-2,2,6-trimethyl-5-(4-propylphenyl)-2,3-dihydro-1H-inden-1-yl)carbamate] are 0.31 nM and 3.82 nM.
`CCCCOc1ccc(-c2cc3c(cc2OCC)[C@H](NC(=O)O[C@@H]2CN4CCC2CC4)C(C)(C)C3)cc1` [Example 135, (S)-quinuclidin-3-yl((R)-5-(4-butoxyphenyl)-6-ethoxy-2,2-dimethyl-2,3-dihydro-1H-inden-1-yl)carbamate]: the half-maximal inhibitory concentration (IC50) in test [1] is 0.51 nM; in test [2] (Homo sapiens, Jurkat, 72 h), 1.46 nM.
